Reference: patent US20220159969A1, “COMPOSITION AND METHOD FOR ENHANCING SPORE GERMINATION AND BIOLOGICAL EFFICACY” (priority 2019, published 2022)

Experiments:
Type in all cases: in vivo
[1] = system: Botrytis cinerea; test: Greenhouse control of Botrytis cinerea on tomato plants (Example 2); settings: Prestop® 0.003% combined with glycine betaine 0.05% or 0.2%, 5 days, necrotic area width, FIG. 3
Experimental: Botrytis cinerea was grown on potato dextrose broth for 1 to 2 weeks without shaking. The resulting mycelial and spores were recovered to produce a liquid inoculum.
Tomato plants, variety Admiro (stage: 3-leaf), were sprayed with the B. cinerea inoculum (5000 sp/ml) then allowed to dry. Then, the treatments were applied by spraying the inoculated tomato plants.
The following treatments were tested (9 repetitions): (T1) Prestop® (C. rosea f. catenulatum J1446) 0.003%; (T2) Prestop® (C. rosea f. catenulatum J1446) 0.003%+glycine betaine (Intracell®, Lallemand) 0.05%; (T3) Prestop® (C. rosea f. catenulatum J1446) 0.003%+glycine betaine (Intracell®, Lallemand) 0.2%; (T4) glycine betaine (Intracell®, Lallemand) 0.2% and (T5) water.
Colby's equation was used to determine the effects expected from the components, as described above. The results were measured at 5 days after the application of the components.

[2] = system: C. rosea f. catenulata J1446 spores; test: Percent germination of C. rosea f. catenulata J1446 on strawberry leaf discs; settings: after 24 h on strawberry leaf discs; germinant added to Prestop® 0.025% (glycine betaine 0.06%/0.6%, yeast extract 0.04%/0.2%) vs Prestop® alone; FIG. 1
Experimental: (§1) Young strawberry plants (Fragaria×ananassa; “Merced” variety) were allowed to grow at least a week before plants were selected for experiments by healthy appearance and having large leaves facing upwards. Spore counts for C. rosea f. catenulata J1446 in the package of Prestop WG used were calculated via haemocytometer to be 1.4×10^10 spores/g and viability of the spores was checked using the MPN (most probably number) method and C. rosea f. catenulata J1446 was calculated to be 3×10^9 CFU/g. […] On average, 0.5 ml of treatment was calculated to be applied per plant. […] The number of spores obtained from each slip was counted using a hemocytometer to determine deposition rate. […]
On the same day, after spraying, two 6 mm leaf discs were cut using a sterilized staples hole punch from two different leaves per plant from five sprayed strawberry plants per treatment group per time period (6, 7, 8 and 24 h) and then dyed with 5 ul lactophenol cotton blue. […] Three viewing areas were chosen at random on each leaf disc and 100 spores were counted: the number that germinated (germ tubes visible at twice the length of the spore) out of that 100 was recorded. Average germination percentages were analyzed per treatment group and per time period.
Data for percent germination assays on strawberry leaves was normal when the distribution was analyzed for both greenhouse and environmental chamber studies. […]

[3] = system: C. rosea f. catenulata J1446; test: Hyphal growth of C. rosea f. catenulata J1446 from strawberry leaf discs onto agar plates (greenhouse); settings: discs cut 1, 2, 3, 6 days after greenhouse incubation, growth on plate 6 days; germinant added to Prestop® 0.025%; FIG. 2
Experimental: as §1
Two 6 mm leaf discs were cut using a sterilized staples hole punch from two different leaves per plant from five sprayed plants per treatment per time period (1, 2, 3, and 6 days after spraying) and placed adaxial side downwards onto paraquat-chloramphenicol agar (PCA) medium (0.1 mL paraquat, 200 mg chloramphenicol, and 12 g agar per liter of water). […] Growth around the leaf disc was measured with a ruler and recorded as average diameter of growth per day. […] Averages in treatments were analyzed.
Data for growth bioassays from 1, 2, 3, and 6 days of greenhouse incubation were all normal when distribution was analysed. […] Multiple comparisons of the mean (alpha=0.05) were analysed using a Tukey post hoc test.

[4] = system: apple scab (Venturia inaequalis); test: Apple scab foliar symptoms on potted Gala apple trees (Example 6)
Experimental: The trial was carried out on potted trees of the Gala variety. Six trees per treatment were reserved for this test.
Two application strategies were tested: (a) one application four days before pathogen inoculation; and (b) a first application four days before pathogen inoculation and a second application after pathogen inoculation when a cumulative of 300° C./hour was reached after the inoculation.
A solution of conidia of V. inaequalis was prepared from 2018 scabbed leaves stored in the freezer. The trees were kept under fog for at least one hour before contamination and then at least 12 hours afterwards. The duration was adapted according to ambient temperature and humidity. The spray volume was defined after a blank test to cover sufficient vegetation without reaching the runoff point (between 30 and 50 mL/tree). The treatments were applied using a hand-held sprayer and carried out four days before inoculation with the pathogen (strategies (a) and (b)) and within 300° C./H after inoculation for strategy (2) only.
The frequency and intensity of foliar symptoms of scab were observed. Observation was carried out four to five days after the start of the first spots, using a 0 to 4 rating scale. Trees were scored individually and were made on all the leaves of each tree.

C[N+](C)(C)CC(=O)[O-] [glycine betaine]
efficacy of Prestop® to control B. cinerea [1]: increased | percentage of spore germination of C. rosea J1446 [2]: increased | colonization of leaf discs by C. rosea J1446 [3]: significantly increased | Frequency of foliar symptoms of scab ([4]; one application four days before inoculation + a second application after inoculation when a cumulative of 300° C./hour was reached): 58.5% | Frequency of foliar symptoms of scab ([4]; one application four days before inoculation with the pathogen): 59.6%
